Reference: US11833139B2 (priority 2019, dated 2023)
≈ marks a conversion by molar mass, not a printed value. Where two headings read alike, the source gives them in different places.

Legend:
A. baumannii HUMC1 = test: MIC by broth microdilution (CLSI), carbapenem-resistant clinical isolate HUMC1; type: cell-based, Acinetobacter baumannii; settings: Acinetobacter baumannii, read-out: MIC
Experimental: (§1) Two A. baumannii isolates were used in this example: HUMC1 (BV374) (Spellberg/Luna Laboratory, University of Southern California, Los Angeles, Calif.) and UNT091-1 (BV378) (UNT Health Science Center, Fort Worth, Tex.). The HUMC1 isolate is a hyper-virulent drug-resistant clinical strain isolated from a blood-stream infection. […] The isolates were stored at −80° C. as 20% (v/v) glycerol cultures.
(§2) MICs were determined by the broth microdilution method following the guidelines of the Clinical Laboratory Standards Institute (CLSI) using RPMI supplemented with […] cationic-adjusted Muller Hinton broth (CA-MHB) as assay medium. To prepare the bacterial inocula, 3-5 colonies of bacterial strains from over-night growth on ChromAgar orientation plates (CHROMagar Cat. No. RT412) were suspended in 5 mL saline. The turbidity of the bacterial suspension was adjusted to 0.5 McFarland units (equal to an optical density at 610 nm (OD610) to 0.08-0.1). This suspension was diluted 200-fold in RPMI supplemented with 10% (v/v) FCS to reach a final concentration of […] colony forming units (CFU)/mL and was used to inoculate the microtiter plates.
(§3) Serial 2-fold dilutions of the antibiotics were prepared in a separate 96-well plate polypropylene U-bottom plate (Ratiolab Cat. No. 6018111) in RPMI supplemented with 10% (v/v) FCS at 10-fold of the final test concentrations and 10 μl of the dilutions were transferred to new 96-well polystyrene U-bottom microtiter plates with a parafilm plate cover.
(§4) The plates were then inoculated with 90 μL per well of the prepared bacterial suspensions in using a multichannel pipette (Eppendorf), with the first column containing 4 wells each for growth control (no antibiotic). […] The MIC was recorded as the lowest concentration of the compound that inhibited bacterial growth by visual inspection. MICs were determined at least in duplicates and in the case of variations, the higher values are provided.

A. baumannii UNT091 = test: MIC by broth microdilution (CLSI), carbapenem-resistant clinical isolate UNT091; type: cell-based, Acinetobacter baumannii; settings: Acinetobacter baumannii, read-out: MIC
Experimental: as §1, §2, §3, §4

A. baumannii ACC00445 = test: Neutropenic sepsis mouse model (CD-1 mice, IP infection); type: in vivo; settings: IV at 1 h and 5 h post-infection, 10 mg/kg
Text: The CD-1 mice were IP infected with A. baumannii ACC00445 strain in the presence of […].

[1] = HUMC1, HUMC1, RPMI plus 10% FCS (Table 1)
[2] = UNT091, UNT091, CA-MHB (Table 1)
[3] = UNT091, UNT091, RPMI plus 10% FCS (Table 1)

SMILES: CO[C@H]1/C=C/O[C@@]2(C)Oc3c(C)c(O)c4c(O)c(c(/C=N/N5CCN(C)CC5)c(O)c4c3C2=O)NC(=O)/C(C)=C\C=C\[C@H](C)[C@H](O)[C@@H](C)[C@@H](O)[C@@H](C)[C@H](OC(C)=O)[C@@H]1C [rifampin]
- MIC (A. baumannii HUMC1; HUMC1, HUMC1, CA-MHB (Table 1)): 16 µg/mL (≈ 19.4 µM)
- MIC (A. baumannii HUMC1; [1]): 16 µg/mL
- MIC (A. baumannii HUMC1; HUMC1, HUMC1 parental strain, RPMI + 10% FCS (Table 2)): 32 µg/mL
- MIC (A. baumannii UNT091; [2]): 8 µg/mL (≈ 9.72 µM)
- MIC (A. baumannii UNT091; [3]): 16 µg/mL
- MIC (A. baumannii UNT091; UNT091, UNT091 parental strain, RPMI + 10% FCS (Table 2)): 2 µg/mL
- protection against sepsis (A. baumannii ACC00445): does not

SMILES: CO/N=C(\C(=O)N[C@@H]1C(=O)N2C(C(=O)O)=C(COC(C)=O)CS[C@H]12)c1csc(N)n1 [cefotaxime]
- MIC (A. baumannii HUMC1; HUMC1, HUMC1, CA-MHB (Table 1)): > 64 µg/mL
- MIC (A. baumannii HUMC1; [1]): > 64 µg/mL
- MIC (A. baumannii UNT091; [2]): > 64 µg/mL
- MIC (A. baumannii UNT091; [3]): > 64 µg/mL

SMILES: C[C@@H](O)[C@H]1C(=O)N2C(C(=O)O)=C(S[C@@H]3CN[C@H](C(=O)N(C)C)C3)[C@H](C)[C@H]12 [meropenem]
- MIC (A. baumannii HUMC1; HUMC1, HUMC1, CA-MHB (Table 1)): > 16 µg/mL
- MIC (A. baumannii HUMC1; [1]): > 16 µg/mL
- MIC (A. baumannii UNT091; [2]): > 16 µg/mL
- MIC (A. baumannii UNT091; [3]): > 16 µg/mL
